Square brackets hold non-standard residues; d marks the D form. Peptide text beside a SMILES is read from it. * marks the point of attachment. ξ: configuration not given here. ξF = NC(Cc1ccccc1)C(=O)O; Cbz = O=C(OCc1ccccc1)*
Experiments:
[1] = target: Procathepsin L (Homo sapiens) (UniProt P07711); experiment: Percent inhibition of human liver cathepsin L at 2 uM
[2] = target: Procathepsin L (Homo sapiens) (UniProt P07711); experiment: Percent inhibition of human liver cathepsin L at 20 uM
[3] = target: T1, Calpain-1 catalytic subunit (Homo sapiens, UniProt P07384); experiment: Inhibitory concentration against human plasma mu-calpain; format: cell-free
T1 sequence (P07384 whole entry): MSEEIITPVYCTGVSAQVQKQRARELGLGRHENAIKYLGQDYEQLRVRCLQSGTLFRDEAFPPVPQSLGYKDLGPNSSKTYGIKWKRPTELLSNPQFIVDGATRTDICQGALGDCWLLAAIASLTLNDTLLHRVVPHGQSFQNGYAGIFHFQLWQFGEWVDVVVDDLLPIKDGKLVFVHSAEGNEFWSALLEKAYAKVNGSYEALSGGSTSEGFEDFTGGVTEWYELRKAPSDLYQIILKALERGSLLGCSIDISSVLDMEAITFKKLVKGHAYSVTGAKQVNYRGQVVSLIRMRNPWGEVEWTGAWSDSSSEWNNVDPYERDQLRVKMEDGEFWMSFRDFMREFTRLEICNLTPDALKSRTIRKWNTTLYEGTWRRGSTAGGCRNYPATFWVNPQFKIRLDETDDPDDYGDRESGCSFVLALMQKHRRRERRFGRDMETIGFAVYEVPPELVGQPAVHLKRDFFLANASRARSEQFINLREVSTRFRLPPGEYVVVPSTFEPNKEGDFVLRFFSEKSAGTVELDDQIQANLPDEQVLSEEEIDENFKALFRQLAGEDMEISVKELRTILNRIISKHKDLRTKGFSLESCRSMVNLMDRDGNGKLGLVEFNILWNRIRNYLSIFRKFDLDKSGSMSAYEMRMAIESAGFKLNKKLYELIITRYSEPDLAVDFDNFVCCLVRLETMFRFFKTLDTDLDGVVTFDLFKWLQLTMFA

[4] = target: Procathepsin L (Homo sapiens) (UniProt P07711); experiment: Percent inhibition of human liver cathepsin L at 0.2 uM
[5] = target: Cathepsin B (Bos taurus) (UniProt P07688); experiment: Percent inhibition of bovine cathepsin B at 0.2 uM
[6] = target: Cathepsin B (Bos taurus) (UniProt P07688); experiment: Percent inhibition of bovine cathepsin B at 2 uM
[7] = target: Cathepsin B (Bos taurus) (UniProt P07688); experiment: Percent inhibition of bovine cathepsin B at 20 uM

Chain of Procathepsin L (Homo sapiens) (P07711 114-333 limits assumed): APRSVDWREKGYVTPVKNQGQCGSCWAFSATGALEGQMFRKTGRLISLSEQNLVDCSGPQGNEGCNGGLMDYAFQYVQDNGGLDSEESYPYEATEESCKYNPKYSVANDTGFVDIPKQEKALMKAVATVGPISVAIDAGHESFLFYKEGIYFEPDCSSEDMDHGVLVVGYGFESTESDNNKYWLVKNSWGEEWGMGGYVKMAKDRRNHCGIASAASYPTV

SMILES	inhibition [1]	inhibition [2]	IC50 [3]	inhibition [4]	inhibition [5]	inhibition [6]	inhibition [7]
Cc1c(C(=O)N[C@@H](Cc2ccccc2)C(=O)C(=O)NCCc2ccccc2)oc2cc3c(cc2c1=O)OCCO3	66.8%	95.7%	4.53 µM	7.4%	0%	35.3%	41.4%
Cc1c(C(=O)N[C@@H](Cc2ccccc2)C(=O)C(=O)NCCc2ccccc2)oc2ccccc2c1=O	78.9%	98.3%	0.53 µM	10.1%	0%	49%	82.1%
NC(=O)C(=O)[C@H](Cc1ccccc1)NC(=O)c1cc(=O)c2ccccc2o1	87.7%	99.1%	8.73 µM	54.2%	21.5%	55.4%	79.9%
CCc1c(C(=O)N[C@@H](Cc2ccccc2)C(=O)C(N)=O)oc2ccccc2c1=O	89.2%	96.6%	0.45 µM	31.9%	16.9%	61.2%	91.5%
Cc1c(C(=O)N[C@@H](Cc2ccccc2)C(=O)C(N)=O)oc2cc3c(cc2c1=O)OCCO3	86.3%	96.6%	0.81 µM	32.5%	26.3%	60.8%	92.2%
Cc1c(C(=O)N[C@@H](Cc2ccccc2)C(=O)C(=O)NC(C)C)oc2ccccc2c1=O	17.5%	71.2%	5.69 µM	2.1%	0%	0%	42.6%
CC(C)[C@H](NC(=O)OCc1ccccc1)C(=O)NC(C=O)Cc1ccccc1 (stereo partly drawn) (Cbz-Val-[ξF]-aldehyde)	100%	100%	–	100%	96%	96.6%	100%
Cc1c(C(=O)N[C@@H](Cc2ccccc2)C(=O)C(=O)NCCN2CCOCC2)oc2ccccc2c1=O	9.6%	69.6%	8.17 µM	0%	0%	0%	23.9%
Cc1c(C(=O)N[C@@H](Cc2ccccc2)C(=O)C(=O)NC(C)C)oc2cc3c(cc2c1=O)OCCO3	24.6%	74.9%	> 20 µM	1.7%	0%	0%	42.2%
Cc1c(C(=O)N[C@@H](Cc2ccccc2)C(=O)C(=O)NCCN2CCOCC2)oc2cc3c(cc2c1=O)OCCO3	26.5%	92%	> 20 µM	0%	0%	0%	20.2%
Cc1c(C(=O)N[C@@H](Cc2ccccc2)C(=O)C(=O)NCc2ccccc2)oc2cc3c(cc2c1=O)OCCO3	83.8%	95.8%	2.48 µM	12.7%	0%	18.6%	58.2%
Cc1c(C(=O)N[C@@H](Cc2ccccc2)C(=O)C(=O)NCc2ccccc2)oc2ccccc2c1=O	65.3%	95.6%	0.72 µM	8.1%	0%	21.3%	67.9%
Cc1c(C(=O)N[C@@H](Cc2ccccc2)C(=O)C(N)=O)oc2ccccc2c1=O	81.5%	98.1%	0.24 µM	22.4%	14.4%	63.2%	91.5%

— ChEMBL document CHEMBL1139593, “Synthesis and biological evaluation of chromone carboxamides as calpain inhibitors” (Bioorg Med Chem Lett, 2005)
